Values joined by “and” are separate entries in the source; they are usually repeats but may differ in a detail not shown here. Equal values may be shown once. Read-outs that look alike come from different tables or passages of the source.
Key:
β-secretase = test system: β-secretase; parameters: method as in PMID 29597336; details: cited from earlier work
Aβ25–35 = molecular target: T1, Aβ25–35 (Homo sapiens, UniProt P05067); assay: Self Aβ25–35 aggregation assay (thioflavin-T fluorescence); type: biochemical; details: for decrease of Aβ25–35 self-aggregation compared to control: 100 μM compound, 24 h of incubation
T1 construct: amyloid β peptide 25–35 (Aβ25–35); purchased Sigma-Aldrich
Method: The Aβ25–35 self-aggregation assay was performed following the method described by Naldi et al.. First, peptide was pretreated with HFIP for 1 day at 22 °C to obtain non-amyloidogenic conformation. […] After incubation, the reaction mixture was supplemented with 0.025 mM thioflavin-T in 50 mM glycine–NaOH buffer (pH 8.5). The fluorescence emission was monitored at 490 nm with excitation at 446 nm using the Gemini XPS (Molecular Devices, Sunnyvale, CA, USA).

hMAO-B = molecular target: T2, hMAO-B (Homo sapiens, UniProt P27338); assay: In vitro hMAO inhibitory assay (luminometric), MAO-B; type: biochemical; details: 16 µM substrate, 0.5 µg enzyme, 25 °C, 1 h; read-out: hMAO-B IC50 (Mean ± SD)
T2 construct: purchased Sigma-Aldrich
T2 sequence (P27338 1-520): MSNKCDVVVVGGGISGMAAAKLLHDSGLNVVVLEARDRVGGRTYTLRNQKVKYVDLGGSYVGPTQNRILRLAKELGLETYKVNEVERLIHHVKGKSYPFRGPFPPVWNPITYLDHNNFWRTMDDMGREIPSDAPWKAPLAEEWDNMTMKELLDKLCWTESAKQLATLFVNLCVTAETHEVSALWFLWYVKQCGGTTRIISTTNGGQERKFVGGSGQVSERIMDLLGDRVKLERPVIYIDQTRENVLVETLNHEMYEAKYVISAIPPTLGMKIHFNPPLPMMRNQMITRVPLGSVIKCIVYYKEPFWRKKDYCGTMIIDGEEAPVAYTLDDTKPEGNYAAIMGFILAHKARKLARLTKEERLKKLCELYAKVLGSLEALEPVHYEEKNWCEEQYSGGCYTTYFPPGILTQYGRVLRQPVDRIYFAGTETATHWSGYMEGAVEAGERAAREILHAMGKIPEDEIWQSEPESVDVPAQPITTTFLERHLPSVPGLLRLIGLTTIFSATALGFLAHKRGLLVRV
Method: (§1) The inhibitory potential of the P. lobata-derived phytochemicals against MAO was evaluated through the luminometric method. Various doses of phytoestrogens in 0.1 M HEPES buffer (pH 7.5) with 5% 1,2,3-propanetriol for MAO-A and 5% 1,2,3-propanetriol and 10% dimethyl sulfoxide for MAO-B were mixed with the substrate (160 µM for MAO-A and 16 µM for MAO-B) and 0.5 µg of the enzyme and incubated at 25 °C. After 1 h incubation, reconstituted luciferin-detection reagent was added to the reaction mixture and incubated at 25 °C for 20 min. After that, luminescent signals were monitored using a microplate reader (Biotek, Winooski, VT, USA).
(§2) In addition, since factors such as organic solvents, metal ions (such as Cu^2+, Cd^2+, and Al^3+), pH, and temperature affect MAO activity, the assay was conducted in a well-controlled laboratory environment. The optimal conditions for the enzymatic reaction, including reaction time, temperature, pH, and the concentrations of the enzyme and substrate, were established based on the previous study. All the test samples were diluted in a reaction buffer containing 10% or less DMSO, and the solvent-control group was tested together for each assay to minimize false-positive/false-negative effects.

mouse astrocytes = test system: mouse astrocytes; parameters: method as in PMID 21708076; details: nanomolar concentration; Aβ-induced cytotoxicity and inflammatory cytokine levels; cited from earlier work
hMAO-A [1] = molecular target: T3, hMAO-A (Homo sapiens, UniProt P21397); assay: In vitro hMAO inhibitory assay (luminometric), MAO-A; type: biochemical
T3 construct: purchased Sigma-Aldrich
T3 sequence (P21397 1-527): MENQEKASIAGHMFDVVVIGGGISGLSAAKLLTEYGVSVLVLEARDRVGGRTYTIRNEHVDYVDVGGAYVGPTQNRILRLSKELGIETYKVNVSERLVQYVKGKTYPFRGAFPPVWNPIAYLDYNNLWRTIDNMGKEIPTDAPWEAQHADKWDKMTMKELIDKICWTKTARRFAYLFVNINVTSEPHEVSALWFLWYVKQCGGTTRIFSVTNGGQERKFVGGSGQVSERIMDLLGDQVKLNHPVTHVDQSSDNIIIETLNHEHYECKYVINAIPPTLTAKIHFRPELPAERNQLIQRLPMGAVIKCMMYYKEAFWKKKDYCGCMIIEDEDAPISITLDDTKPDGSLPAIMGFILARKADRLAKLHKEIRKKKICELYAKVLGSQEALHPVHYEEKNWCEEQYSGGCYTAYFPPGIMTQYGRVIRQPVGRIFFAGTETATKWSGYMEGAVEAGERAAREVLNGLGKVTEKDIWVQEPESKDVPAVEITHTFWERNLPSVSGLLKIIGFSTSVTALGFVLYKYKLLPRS
Method: as §1, §2

hMAO-A [2] = molecular target: T3, hMAO-A; assay: Kinetic assay for hMAO-A (Lineweaver-Burk and secondary plots); type: biochemical
Method: The experimental method was the same as that used for the hMAO inhibitory assay; 0.5 µg of enzyme, 40–160 µM substrate and 0, 2.5, 10, and 20 µM coumestrol were used. A Lineweaver–Burk plot (LB plot) was generated using SigmaPlot 12.0 based on the results of the kinetic assay and secondary plots of the LB plot (LB-2nd plot) were generated using the exploratory EK macro module (Table S1).
The equation for the LB plot is as follows:(1) […]

MAO-B = details: cited from earlier work
MAO-A = details: cited from earlier work
[3] = Screening active compound, 100 μM
[4] = 160 µM substrate, 0.5 µg enzyme, 25 °C, 1 h, read-out: hMAO-A IC50 (Mean ± SD)
[5] = substrate 40 μM, coumestrol 2.5 μM
[6] = substrate 40 μM, coumestrol 10 μM
[7] = substrate 40 μM, coumestrol 20 μM
[8] = substrate 80 μM, coumestrol 2.5 μM
[9] = substrate 80 μM, coumestrol 10 μM
[10] = substrate 80 μM, coumestrol 20 μM
[11] = substrate 160 μM, coumestrol 2.5 μM
[12] = substrate 160 μM, coumestrol 10 μM
[13] = substrate 160 μM, coumestrol 20 μM

SMILES: O=c1oc2cc(O)ccc2c2oc3cc(O)ccc3c12 [Coumestrol]
- in vitro inhibitory effect against β-secretase (β-secretase): in vitro inhibitory effect
- decrease of Aβ25–35 self-aggregation compared to control (Aβ25–35): 76.14%
- Fluorescence (Emission = 490 nm / Excitation = 446 nm), replicates 1-3 (Aβ25–35; Dose-dependent curves, 5 μM): 874.9012 and 872.4322 and 899.9266
- Fluorescence (Emission = 490 nm / Excitation = 446 nm), replicates 1-3 (Aβ25–35; Dose-dependent curves, 10 μM): 820.955 and 835.446 and 846.767
- Fluorescence (Emission = 490 nm / Excitation = 446 nm), replicates 1-3 (Aβ25–35; Dose-dependent curves, 20 μM): 725.8814 and 709.3678 and 704.8239
- Fluorescence (Emission = 490 nm / Excitation = 446 nm), replicates 1-3 (Aβ25–35; Dose-dependent curves, 50 μM): 578.864 and 549.001 and 576.214
- Fluorescence (Emission = 490 nm / Excitation = 446 nm), replicates 1-3 (Aβ25–35; Dose-dependent curves, 100 μM): 484.285 and 460.697 and 486.519
- Fluorescence (Emission = 490 nm / Excitation = 446 nm), replicates 1-3 (Aβ25–35; [3]): 420.995 and 408.908 and 418.89
- IC50 (Aβ25–35; thioflavin-T assay, read-out: IC50 for inhibition of Aβ25–35 self-aggregation): 37.4 ± 1.7 µM
- IC50 (hMAO-B): 77.8 ± 2.1 µM
- neuroprotective effects in mouse astrocytes (mouse astrocytes): neuroprotective effects
- IC50 (hMAO-A [1]; [4]): 1.99 ± 0.68 µM
- Inhibition Mode (hMAO-A [2]; 0.5 µg MAO-A, 40–160 µM substrate, 25 °C): Competitive
- Inhibition Mode (hMAO-A [2]; 0.5 µg MAO-A, 40–160 µM substrate, 25 °C, listed as coumestrol): competitive inhibitor
- Ki (hMAO-A [2]; 0.5 µg MAO-A, 40–160 µM substrate, 25 °C, secondary plots, read-out: Inhibition Constant (Ki)): 1.32 µM
- 1/V Mean (hMAO-A [2]; [5]): 0.000734 1/(RLU/60min)
- RLU Mean (hMAO-A [2]; [5]): 81783.67 RLU
- 1/V Mean (hMAO-A [2]; [6]): 0.001642 1/(RLU/60min)
- RLU Mean (hMAO-A [2]; [6]): 36716 RLU
- 1/V Mean (hMAO-A [2]; [7]): 0.002945 1/(RLU/60min)
- RLU Mean (hMAO-A [2]; [7]): 20374 RLU
- 1/V Mean (hMAO-A [2]; [8]): 0.000475 1/(RLU/60min)
- RLU Mean (hMAO-A [2]; [8]): 126374 RLU
- 1/V Mean (hMAO-A [2]; [9]): 0.000938 1/(RLU/60min)
- RLU Mean (hMAO-A [2]; [9]): 64010.67 RLU
- 1/V Mean (hMAO-A [2]; [10]): 0.001597 1/(RLU/60min)
- RLU Mean (hMAO-A [2]; [10]): 37649 RLU
- 1/V Mean (hMAO-A [2]; [11]): 0.000261 1/(RLU/60min)
- RLU Mean (hMAO-A [2]; [11]): 229959.3 RLU
- 1/V Mean (hMAO-A [2]; [12]): 0.000495 1/(RLU/60min)
- RLU Mean (hMAO-A [2]; [12]): 121308.7 RLU
- 1/V Mean (hMAO-A [2]; [13]): 0.000797 1/(RLU/60min)
- RLU Mean (hMAO-A [2]; [13]): 75572 RLU

SMILES: COc1cc(/C=C/C(=O)CC(=O)/C=C/c2ccc(O)c(OC)c2)ccc1O [Curcumin, curcumin, reference compound]
- Fluorescence (Emission = 490 nm / Excitation = 446 nm), replicates 1-3 (Aβ25–35; Dose-dependent curves, 5 μM): 714.733 and 699.957 and 732.987
- Fluorescence (Emission = 490 nm / Excitation = 446 nm), replicates 1-3 (Aβ25–35; Dose-dependent curves, 10 μM): 659.3354 and 647.8281 and 645.7345
- Fluorescence (Emission = 490 nm / Excitation = 446 nm), replicates 1-3 (Aβ25–35; Dose-dependent curves, 20 μM): 508.323 and 494.704 and 529.05
- Fluorescence (Emission = 490 nm / Excitation = 446 nm), replicates 1-3 (Aβ25–35; Screening active compound, 20 μM): 446.557 and 456.907 and 436.435

SMILES: O=c1c(-c2ccc(O)cc2)coc2cc(O)ccc12 [Daidzein]
- decrease of Aβ25–35 self-aggregation compared to control (Aβ25–35): 35.54%
- Fluorescence (Emission = 490 nm / Excitation = 446 nm), replicates 1-3 (Aβ25–35; [3]): 752.714 and 744.841 and 739.542

SMILES: O=c1c(-c2ccc(O)cc2)coc2cc(O[C@@H]3O[C@H](CO)[C@@H](O)[C@H](O)[C@H]3O)ccc12 [Daidzin]
- IC50 (hMAO-B): > 400 µM
- IC50 (hMAO-A [1]): > 400 µM

SMILES: O=c1c(-c2ccc(O)cc2)coc2cc(O)cc(O)c12 [Genistein]
- decrease of Aβ25–35 self-aggregation compared to control (Aβ25–35): 34.90%
- Fluorescence (Emission = 490 nm / Excitation = 446 nm), replicates 1-3 (Aβ25–35; [3]): 656.961 and 678.75 and 636.556

SMILES: O=c1c(-c2ccc(O)cc2)coc2cc(O[C@@H]3O[C@H](CO)[C@@H](O)[C@H](O)[C@H]3O)cc(O)c12 [Genistin]
- IC50 (hMAO-B): > 400 µM
- IC50 (hMAO-A [1]; [4]): > 400 µM

SMILES: CC1OC(OCC2OC(Oc3c(-c4ccc(O)cc4)oc4cc(O)cc(O)c4c3=O)C(O)C(O)C2O)C(O)C(O)C1O (centres unmarked) [Kaempferol-3-O-robinobioside]
- IC50 (hMAO-B): > 400 µM
- IC50 (hMAO-A [1]; [4]): > 400 µM

SMILES: CC1OC(OCC2OC(Oc3c(-c4ccc(O)cc4)oc4cc(O)cc(O)c4c3=O)C(O)C(O)C2O)C(O)C(O)C1O (centres unmarked) [Nicotiflorine]
- IC50 (hMAO-B): > 400 µM
- IC50 (hMAO-A [1]; [4]): > 400 µM

SMILES: CC1OC(OCC2OC(Oc3c(-c4ccc(O)c(O)c4)oc4cc(O)cc(O)c4c3=O)C(O)C(O)C2O)C(O)C(O)C1O (centres unmarked) [Quercetin-3-O-robinobioside]
- IC50 (hMAO-B): > 400 µM
- IC50 (hMAO-A [1]): > 400 µM

SMILES: CC1OC(OCC2OC(Oc3c(-c4ccc(O)cc4)oc4cc(OC5OC(C)C(O)C(O)C5O)cc(O)c4c3=O)C(O)C(O)C2O)C(O)C(O)C1O (centres unmarked) [Robinin, kaempferol 3-O-robinoside-7-O-rhamnoside]
- IC50 (hMAO-B): > 400 µM
- IC50 (hMAO-A [1]; [4]): > 400 µM

SMILES: C[C@@H]1O[C@@H](OC[C@H]2O[C@@H](Oc3c(-c4ccc(O)c(O)c4)oc4cc(O)cc(O)c4c3=O)[C@H](O)[C@@H](O)[C@@H]2O)[C@H](O)[C@H](O)[C@H]1O [Rutin]
- decrease of Aβ25–35 self-aggregation compared to control (Aβ25–35): 49.31%
- Fluorescence (Emission = 490 nm / Excitation = 446 nm), replicates 1-3 (Aβ25–35; [3]): 556.703 and 574.097 and 523.388
- IC50 (hMAO-B): > 400 µM
- IC50 (hMAO-A [1]): 387 ± 4.63 µM
- inhibitory activity against MAO-A (hMAO-A [1]): weak MAO-A inhibitory activity

SMILES: COc1c(CC=C(C)C)c(O)cc2oc(=O)c3c4ccc(O)cc4oc3c12 [glycyrol]
- IC50 (MAO-B; read-out: IC50 against MAO-B): 29.5 µM
- IC50 (MAO-A; read-out: activity against MAO-A (no activity below)): > 40 µM

SMILES: CC(C)=CCc1cc2c(cc1O)oc(=O)c1c3ccc(O)cc3oc21 [psoralidin]
- inhibitory effect against MAO-B (MAO-B): did not show a significant inhibitory effect
- inhibitory effect against MAO-A (MAO-A): did not show a significant inhibitory effect
